Experimental data reported in patent publication US6903104B2, “Indol-3-YL-2-oxoacetamide compounds and methods of use thereof” (National Health Research Institutes, priority 2001, dated 2005).

Assays:
[1] = tested on: rat aorta endothelial cells; experiment: Rat aorta tube formation assay (angiogenesis inhibition); assay type: cell-based, Spraque-Dawley rats; design: key: Noninhibitors are indicated by the symbol (−), meaning that the extent of endothelial cell growth is essentially at the same level as that of the control; The most potent inhibitors receive a score of (+++++), indicating essentially no measurable endothelial cell growth; details: 5 days
Protocol: The procedures are modified from previous reports (Burbridge and West 2001; Bauer et al. 2000; Nicosai and Ottinetti 1990a) and described as follows. Male Spraque-Dawley rats of 6-8 weeks old are purchased from the National Laboratory Animal Breeding and Research Center (Taipei, Taiwan). The animals are anesthetized with urethane (2 g/kg, intraperitoneal) and the thoracic aortas are quickly harvested in a laminar flow hood. The aortas are rinsed with ice-cold normal saline with 10 μg/ml gentamicin and the attached fibroadipose tissues are removed using micro-dissection scissors. The aortas are cross-sectioned into rings of 1 mm in thickness. A mixture of Matrigel®, purchased from BD Biosciences, solution and the EBM-II medium, purchased from BioWhittaker Inc., (1:1) with 2% FBS, 0.25 mg/ml, amphotericin B and 10 μg/ml gentamicin is prepared and added at 100 μl to each well of a 48-well plate. The mixture is allowed to gel at 37° C. Aorta rings are then placed onto the gelled matrix and embedded in an additional 150 μl per well of the mixture solution and allowed to gel at 37° C. The aorta rings are then covered with 125 μl of the EGM-II medium and incubated overnight in humidified incubator with 5% CO2/95% air at 37° C. After removal of the EGM-II from the established aorta cultures, the compound-containing media are applied at 300 μl per well to the cultures and then incubated in 5% CO2/95% air at 37° C. for 5 days. The cultures are then subject to the 3-[4,5-dimethylthiazol-2-yl]-2,5 diphenyl-2H-tetrazolium bromide (MTT) or 3-(4,5-dimethylthiazol-2-yl)-5-(3-carbomethoxyphenyl)-2H-tetrazolium (MTS) assay and OD490 nm values measured. The testing compounds are dissolved in dimethyl sulfoxide (DMSO) and prepared in EBM-II media with at a final concentration of DMSO less than 0.1%.
The capillary-like, tube structure of the outgrown rat aorta endothelial cells is easily visualized by MTT staining. The medium on top of the matrix is removed from the established aorta ring cultures. MTT solution of 5 mg/ml in saline is added to the cultures at 100 μl/well and the cultures are incubated in a CO2 incubator at 37° C. for 24 hr. The stained cultures are then examined under a microscope DMIRB from Leica and photos taken with a digital camera.
Inhibition activity is also assessed in the following manner. The reductive reaction of MTS initiated by the viable cellular mitochondrial activity is used as a basis for the measurement of cell viability (Cory et al. 1991; Gieni et al. 1995). To the rat aorta ring cultures 300 μl of a solution containing 100 μg MTS and 1 μg, phenazine methosulfate is added per well and incubated in 5% CO2/95% air at 37° C. for 24 hr. During the incubation, MTS is converted to formazan product. At the end of incubation, the solution overlaying the gel is well-mixed and 100 μl aliquots are transferred into a 96-well plate for measurement of OD490 nm with a spectrophotometer VICTOR™-II from Wallac Oy.
The compounds listed in Table 3 are screened for angiogenesis inhibition. The control compound, ASTA, is D-24851, N-[pyridin-4-yl]-[1-(4-chlorobenzyl)-indol-3-yl]-glyoxylic acid amide. Noninhibitors are indicated by the symbol (−), meaning that the extent of endothelial cell growth is essentially at the same level as that of the control.

[2] = tested on: human colorectal SW480 tumor xenograft; experiment: Antitumor activity, human colorectal SW480 tumor xenograft; assay type: in vivo, athymic nude mice
Protocol: Human colorectal SW480 cancer cells were subcutaneously implanted into the young male athymic nude mice at 1 million cells per mouse. The treatment schedule of 200 mg/kg daily oral administration for 6 weeks was initiated at the time which the tumor size reached 50˜100 mm^3. Compound was orally gavaged to the nude mice subcutaneously bearing human colorectal SW480 tumor xenograft based on the treatment schedule. The tumor size and body weight of the animals were monitored twice a week through out the 70-day period of observation. The tumor growth was suppressed by the daily oral treatments of compound 56. Tumor sizes of the treated and vehicle control groups were compared at the end of 70-day observation. The size of tumor mass subcutaneously implanted in the nude mice for the treated group was reduced to 26% compared to that of the vehicle control group at the end of the observation period.

Structure (SMILES) | Inhibition Score ([1]; final conc. 0.3 μg/ml) | Inhibition Score ([1]; final conc. 1 μg/ml) | size of tumor mass compared to that of the vehicle control group ([2]; 200 mg/kg daily oral for 6 weeks, end of 70-day observation) [%] | tumor growth ([2]; 200 mg/kg daily oral treatments) | toxicity as noted by loss of the body weight ([2]; oral multiple dosing, 200 mg/kg daily for 6 weeks)
Cc1cc(NC(=O)C(=O)c2cn(Cc3ccc(C#N)cc3)c3ccccc23)sn1 [Compound 25] | +++++ |  |  |  | 
Cc1cc(Cn2cc(C(=O)C(=O)Nc3cc(C)ns3)c3ccccc32)on1 [Compound 56] | +++++ | − | 26 | suppressed | no obvious toxicity
